Test results taken from PubChem BioAssay AID300 (DTP/NCI, 2004).
“And” between values parts separate entries of the source, which are not always exact repeats. Identical values can stand only once. Results filed as inconclusive are left out. How the source made its calls: active means survival T/C of 150% or more; inactive means T/C below 125% in these data. *1 amine or outer side, *2 acyl side, *3 side chain or, on linkers, in order; H or OH if unused. Where a SMILES comes first, the peptide text is derived from it. Bridges are numbered along the chain shown (N, C = ends). Roman numbers before positions name the chains, in order. [ ]: non-standard residue; d: D form. Actinocin(9to1) = Cc1c2oc3c(C)ccc(C(=O)[*:1])c3nc-2c(C(=O)[*:2])c(N)c1=O; aThr = C[C@H](O)[C@H](N)C(=O)O; NMeV = CN[CH](C(=O)O)C(C)C; Sar = CNCC(=O)O

System: Madison 109 lung carcinoma i.m., mice, median survival
Experiment: NCI In Vivo Anticancer Drug Screen. Data for tumor model Madison 109 Lung Carcinoma (intramuscular) in unknown mice
Details: endpoint: median survival time, higher = longer survival
Protocol: The antitumor activity of compounds was measured in mice bearing transplantable tumors. Survival or tumor size were measured and the results are expressed as the measurement made in the treated group (T) divided by the measurement made in the vehicle treated control group (C). The tumor model used in this assay is Madison 109 Lung Carcinoma (intramuscular) in unknown mice

[1] = dose: 0.4 mg/kg/injection, schedule: Q01DX009 (ip), vehicle: water
[2] = dose: 0.1 mg/kg/injection, schedule: Q01DX009 (ip), vehicle: saline
[3] = dose: 0.2 mg/kg/injection, schedule: Q01DX009 (ip), vehicle: saline
[4] = dose: 5.5 mg/kg/injection, schedule: Q01DX005 (ip), vehicle: water
[5] = dose: 52.5 mg/kg/injection, schedule: Q01DX005 (ip), vehicle: water

Measured: T/C

COc1cccc2c1C(=O)c1c(O)c3c(c(O)c1C2=O)C[C@@](O)(C(=O)CO)C[C@@H]3OC1CC(N)C(O)C(C)O1 (stereo partly drawn)
inactive: dose: 0.25 mg/kg/injection, schedule: Q01DX005 (ip), vehicle: water 102 % of control | [1] 98 % of control | dose: 0.5 mg/kg/injection, schedule: Q01DX005 (ip), vehicle: water 119 % of control and 120 % of control | dose: 0.63 mg/kg/injection, schedule: Q04DX003 (ip), vehicle: water 104 % of control | dose: 0.8 mg/kg/injection, schedule: Q01DX009 (ip), vehicle: water 104 % of control | dose: 1.0 mg/kg/injection, schedule: Q01DX005 (ip), vehicle: water 120 % of control | dose: 1.2 mg/kg/injection, schedule: Q01DX009 (ip), vehicle: water 105 % of control | dose: 1.25 mg/kg/injection, schedule: Q04DX003 (ip), vehicle: water 96 % of control | dose: 1.6 mg/kg/injection, schedule: Q01DX009 (ip), vehicle: water 102 % of control | dose: 2.5 mg/kg/injection, schedule: Q01DX005 (ip), vehicle: water 36 % of control | dose: 2.5 mg/kg/injection, schedule: Q04DX003 (ip), vehicle: water 101 % of control

CO[C@H](C(=O)[C@@H](O)[C@@H](C)O)[C@@H]1Cc2cc3cc(OC4CC(OC5CC(O)C(O)C(C)O5)C(O)C(C)O4)c(C)c(O)c3c(O)c2C(=O)[C@H]1OC1CC(OC2CC(OC3CC(C)(O)C(O)C(C)O3)C(O)C(C)O2)C(O)C(C)O1 (stereo partly drawn)
inactive: dose: 0.05 mg/kg/injection, schedule: Q01DX009 (ip), vehicle: water 100 % of control | dose: 0.1 mg/kg/injection, schedule: Q01DX009 (ip), vehicle: water 100 % of control | dose: 0.2 mg/kg/injection, schedule: Q01DX009 (ip), vehicle: water 115 % of control | dose: 0.3 mg/kg/injection, schedule: Q01DX009 (ip), vehicle: water 86 % of control and 110 % of control | [1] 108 % of control and 115 % of control | dose: 0.5 mg/kg/injection, schedule: Q01DX009 (ip), vehicle: water 103 % of control

O=c1[nH]cc(F)c(=O)[nH]1
inactive: dose: 5.0 mg/kg/injection, schedule: Q01DX009 (ip), vehicle: saline 94 % of control | dose: 10.0 mg/kg/injection, schedule: Q01DX009 (ip), vehicle: saline 88 % of control | dose: 15.0 mg/kg/injection, schedule: Q01DX009 (ip), vehicle: saline 123 % of control | dose: 20.0 mg/kg/injection, schedule: Q01DX009 (ip), vehicle: saline 113 % of control

O=C(O)CCCc1ccc(N(CCCl)CCCl)cc1
inactive: dose: 1.5 mg/kg/injection, schedule: Q01DX009 (ip), vehicle: saline 105 % of control

O=[N+]([O-])c1ccc(Cl)cc1[N+](=O)[O-]
inactive: dose: 10.0 mg/kg/injection, schedule: Q02DX009 (ip), vehicle: water 121 % of control | dose: 20.0 mg/kg/injection, schedule: Q02DX009 (ip), vehicle: water 118 % of control | dose: 80.0 mg/kg/injection, schedule: Q02DX009 (ip), vehicle: water 119 % of control

c1ccc([C@H]2CN3CCSC3=N2)cc1
inactive: dose: 0.75 mg/kg/injection, schedule: Q01DX009 (ip), vehicle: water 114 % of control | dose: 1.5 mg/kg/injection, schedule: Q01DX009 (ip), vehicle: water 122 % of control | dose: 3.0 mg/kg/injection, schedule: Q01DX009 (ip), vehicle: water 97 % of control | dose: 6.0 mg/kg/injection, schedule: Q01DX009 (ip), vehicle: water 108 % of control

CO[C@@]12[C@H](COC(N)=O)C3=C(C(=O)C(C)=C(N)C3=O)N1C[C@@H]1N[C@@H]12
inactive: [2] 106 % of control | [3] 96 % of control | dose: 0.4 mg/kg/injection, schedule: Q01DX009 (ip), vehicle: saline 108 % of control | dose: 0.8 mg/kg/injection, schedule: Q01DX009 (ip), vehicle: saline 109 % of control

NC(=O)c1ncn(C2OC(CO)C(O)C2O)n1 (stereo not drawn)
inactive: dose: 12.5 mg/kg/injection, schedule: Q01DX009 (ip), vehicle: water 103 % of control | dose: 25.0 mg/kg/injection, schedule: Q01DX009 (ip), vehicle: water 100 % of control | dose: 50.0 mg/kg/injection, schedule: Q01DX009 (ip), vehicle: water 109 % of control | dose: 100.0 mg/kg/injection, schedule: Q01DX009 (ip), vehicle: water 115 % of control

Cc1c2oc3c(C)ccc(C(=O)N[C@@H]4C(=O)N[C@H](C(C)C)C(=O)N5CCC[C@H]5C(=O)N(C)CC(=O)N(C)[C@@H](C(C)C)C(=O)O[C@H]4C)c3nc-2c(C(=O)N[C@@H]2C(=O)N[C@H](C(C)C)C(=O)N3CCC[C@H]3C(=O)N(C)CC(=O)N(C)[C@@H](C(C)C)C(=O)O[C@H]2C)c(N)c1=O (I: [aThr][dV]P[Sar][NMeV] / II: [aThr][dV]P[Sar][NMeV]; ester I:1-I:C, II:1-II:C; linker I:N-II:N via Actinocin(9to1))
inactive: dose: 0.04 mg/kg/injection, schedule: Q02DX009 (ip), vehicle: water 100 % of control | dose: 0.05 mg/kg/injection, schedule: Q02DX009 (ip), vehicle: water 108 % of control | dose: 0.05 mg/kg/injection, schedule: Q03DX009 (ip), vehicle: water 110 % of control | dose: 0.05 mg/kg/injection, schedule: Q04DX009 (ip), vehicle: water 106 % of control | dose: 0.06 mg/kg/injection, schedule: Q02DX009 (ip), vehicle: water 100 % of control | dose: 0.08 mg/kg/injection, schedule: Q02DX009 (ip), vehicle: water 121 % of control | dose: 0.08 mg/kg/injection, schedule: Q04DX009 (ip), vehicle: water 110 % of control | dose: 0.1 mg/kg/injection, schedule: Q01DX001 (ip), vehicle: water 112 % of control | dose: 0.2 mg/kg/injection, schedule: Q01DX001 (ip), vehicle: water 110 % of control | dose: 0.4 mg/kg/injection, schedule: Q01DX001 (ip), vehicle: water 110 % of control

C1CN1c1nc(N2CC2)nc(N2CC2)n1
inactive: dose: 0.02 mg/kg/injection, schedule: Q01DX009 (ip), vehicle: saline 101 % of control | dose: 0.05 mg/kg/injection, schedule: Q01DX009 (ip), vehicle: saline 110 % of control | [2] 112 % of control | [3] 102 % of control

COc1cccc2c1C(=O)c1c(O)c3c(c(O)c1C2=O)CC(O)(C(C)=O)CC3OC1CC(N)C(O)C(C)O1 (stereo not drawn)
inactive: [4] 123 % of control | dose: 8.0 mg/kg/injection, schedule: Q01DX005 (ip), vehicle: water 123 % of control | dose: 16.5 mg/kg/injection, schedule: Q01DX005 (ip), vehicle: water 119 % of control and 120 % of control | dose: 24.0 mg/kg/injection, schedule: Q01DX005 (ip), vehicle: water 73 % of control | dose: 27.5 mg/kg/injection, schedule: Q01DX005 (ip), vehicle: water 52 % of control | dose: 31.5 mg/kg/injection, schedule: Q01DX005 (ip), vehicle: water 123 % of control | dose: 40.0 mg/kg/injection, schedule: Q01DX005 (ip), vehicle: water 114 % of control | [5] 114 % of control

CN(C)c1nc(N(C)C)nc(N(C)C)n1
inactive: dose: 20.0 mg/kg/injection, schedule: Q01DX009 (ip), vehicle: other 89 % of control | dose: 40.0 mg/kg/injection, schedule: Q01DX009 (ip), vehicle: other 96 % of control

COc1cccc2c1C(=O)c1c(O)c3c(c(O)c1C2=O)CC(O)(C(=O)CO)CC3OC1CC(N)C(O)C(C)O1 (stereo not drawn)
inactive: [4] 100 % of control | [5] 102 % of control

Cc1c2oc3c(C)ccc(C(=O)NC4C(=O)NC(C(C)C)C(=O)N5CCCC5C(=O)N(C)CC(=O)N(C)C(C(C)C)C(=O)OC4C)c3nc-2c(C(=O)NC2C(=O)NC(C(C)C)C(=O)N3CCCC3C(=O)N(C)CC(=O)N(C)C(C(C)C)C(=O)OC2C)c(N)c1=O (stereo not drawn) (I: TVP[Sar][NMeV] / II: TVP[Sar][NMeV]; ester I:1-I:C, II:1-II:C; linker I:N-II:N via Actinocin(9to1); configuration not given here)
inactive: dose: 0.64 mg/kg/injection, schedule: Q01DX009 (ip), vehicle: water 118 % of control | dose: 0.84 mg/kg/injection, schedule: Q01DX009 (ip), vehicle: water 124 % of control

CCN(CC)CCOc1ccc2c(c1)C(=O)c1cc(OCCN(CC)CC)ccc1-2
inactive: dose: 25.0 mg/kg/injection, schedule: Q04DX009 (ip), vehicle: Klucel (hydroxypropylcellulose) (HPC) 111 % of control | dose: 50.0 mg/kg/injection, schedule: Q04DX009 (ip), vehicle: Klucel (hydroxypropylcellulose) (HPC) 114 % of control | dose: 75.0 mg/kg/injection, schedule: Q04DX009 (ip), vehicle: Klucel (hydroxypropylcellulose) (HPC) 102 % of control
